Test results from patent US20130030017A1, “QUINOLINE DERIVATIVES AS ANTIBACTERIAL AGENTS” (priority 2005, published 2013).
In brackets after ≈: the same amount, converted by molar mass.

Assays:
[1] = system: Staphylococcus aureus (ATCC29213); experiment: Microtitre plate assay, IC90 determination (STA 29213); format: cell-based; conditions: 90% inhibitory concentration for bacterial growth, 37° C., resazurin fluorescence; for IC90: Staphylococcus aureus, ATCC29213, 24 h; for IC90 STA 29213: 24 hours
Procedure: (§1) The bacteria used in this study were grown overnight in flasks containing 100 ml Mueller-Hinton Broth (Becton Dickinson—cat. no. 275730) in sterile de-ionized water, with shaking, at 37° C. Stocks (0.5 ml/tube) were stored at −70° C. until use. Bacteria titrations were performed in microtiter plates and colony forming units (CFUs) were determined. In general, an inoculum level of approximately 100 CFUs was used for susceptibility testing.
(§2) Flat-bottom, sterile 96-well plastic microtiter plates were filled with 180 μl of sterile deionized water, supplemented with 0.25% BSA. Subsequently, stock solutions (7.8× final test concentration) of compounds were added in 45 μl volumes in column 2 Serial five-fold dilutions (45 μl in 180 μl) were made directly in the microtiter plates from column 2 to reach column 11. Untreated control samples with (column 1) and without (column 12) inoculum were included in each microtiter plate. Depending on the bacteria type, approximately 10 to 60 CFU per well of bacteria inoculum (100 TCID50), in a volume of 100 μl in 2.8× Mueller-Hinton broth medium, was added to the rows A to H, except column 12. The same volume of broth medium without inoculum was added to column 12 in row A to H. The cultures were incubated at 37° C. for 24 hours under a normal atmosphere (incubator with open air valve and continuous ventilation). At the end of incubation, one day after inoculation, the bacterial growth was quantitated fluorometrically. Therefore resazurin (0.6 mg/ml) was added in a volume of 20 μl to all wells 3 hours after inoculation, and the plates were re-incubated overnight. A change in colour from blue to pink indicated the growth of bacteria. The fluorescence was read in a computer-controlled fluorometer (Cytofluor Biosearch) at an excitation wavelength of 530 nm and an emission wavelength of 590 nm. The % growth inhibition achieved by the compounds was calculated according to standard methods. The IC90 (expressed in μg/ml) was defined as the 90% inhibitory concentration for bacterial growth.

[2] = system: Streptococcus pneumoniae (ATCC6305); experiment: Microtitre plate assay, IC90 determination (SPN 6305); format: cell-based; conditions: 90% inhibitory concentration for bacterial growth, 37° C., resazurin fluorescence; for IC90: Streptococcus pneumoniae, ATCC6305, 24 h; for IC90 SPN 6305: 24 hours
Procedure: as §1, §2

[3] = system: Streptococcus pyogens (ATCC8668); experiment: Microtitre plate assay, IC90 determination (SPY 8668); format: cell-based; conditions: 90% inhibitory concentration for bacterial growth, 37° C., resazurin fluorescence; for IC90 SPY 8668: 24 hours; for IC90: Streptococcus, ATCC8668, 24 h
Procedure: as §1, §2

[4] = system: Listeria monocytogenes (ATCC49594); experiment: Microtitre plate assay, IC90 determination (LMO 49594); format: cell-based; conditions: 90% inhibitory concentration for bacterial growth, 37° C., 24 hours, resazurin fluorescence
Procedure: as §1, §2

[5] = system: Enterococcus faecalis (ATCC29212); experiment: Microtitre plate assay, IC90 determination (EFA 29212); format: cell-based; conditions: 90% inhibitory concentration for bacterial growth, 37° C., resazurin fluorescence; for IC90 EFA 29212: 24 hours; for IC90: Enterococcus faecalis, ATCC29212, 24 h
Procedure: as §1, §2

[6] = system: Bacillus subtilis (ATCC43639); experiment: Microtitre plate assay, IC90 determination (BSU 43639); format: cell-based; conditions: 90% inhibitory concentration for bacterial growth, 37° C., 24 hours, resazurin fluorescence
Procedure: as §1, §2

[7] = system: Pseudomonas aeruginosa (ATCC27853); experiment: Microtitre plate assay, IC90 determination (PAE 27853); format: cell-based; conditions: 90% inhibitory concentration for bacterial growth, 37° C., resazurin fluorescence; for IC90 PAE 27853: 24 hours; for IC90: Pseudomonas aeruginosa, ATCC27853, 24 h
Procedure: as §1, §2

[8] = system: methicilline resistant Staphylococcus aureus (MRSA) (a clinical isolate from the University of Antwerp); experiment: Microtitre plate assay, IC90 determination (STA RMETH); format: cell-based; conditions: 90% inhibitory concentration for bacterial growth, 37° C., 24 hours, resazurin fluorescence
Procedure: as §1, §2

[9] = system: Staphylococcus aureus (ATCC25923); experiment: Microtitre plate assay, IC90 determination (STA 25923); format: cell-based; conditions: 90% inhibitory concentration for bacterial growth, 37° C., 24 hours, resazurin fluorescence
Procedure: as §1
Flat-bottom, sterile 96-well plastic microtiter plates were filled with 180 μl of sterile deionized water, supplemented with 0.25% BSA. Subsequently, stock solutions (7.8× final test concentration) of compounds were added in 45 μl volumes in column 2 Serial five-fold dilutions (45 μl in 180 μl) were made directly in the microtiter plates from column 2 to reach column 11. Untreated control samples with (column 1) and without (column 12) inoculum were included in each microtiter plate. […] At the end of incubation, one day after inoculation, the bacterial growth was quantitated fluorometrically. […] The fluorescence was read in a computer-controlled fluorometer (Cytofluor Biosearch) at an excitation wavelength of 530 nm and an emission wavelength of 590 nm. The % growth inhibition achieved by the compounds was calculated according to standard methods. […]

SMILES	IC90 [1] [mg/L]	IC90 [2] [mg/L]	melting point [°C]	IC90 STA 29213 [1] [mg/L]	IC90 SPN 6305 [2] [mg/L]	IC90 SPY 8668 [3] [mg/L]	IC90 PAE 27853 [7] [mg/L]	also measured
COc1nc2ccc(Cl)cc2cc1C(c1ccccc1)C(O)(CCc1ccccc1)CCN(C)C (stereo not drawn) [Compound 9]	24.5 (≈ 50.1 µM)	1.7 (≈ 3.48 µM)	172					
COc1nc2ccc(Br)cc2cc1C(c1ccccc1)C(O)(CCc1ccccc1)CCN(C)C (racemic) [Compound 14]				13.4 (≈ 25.1 µM)	42.4 (≈ 79.5 µM)	10.6 (≈ 19.9 µM)	9.5 (≈ 17.8 µM)	IC90 LMO 49594 [4]: 10.6 mg/L (≈ 19.9 µM); IC90 EFA 29212 [5]: 9.5 mg/L (≈ 17.8 µM); IC90 BSU 43639 [6]: 13.4 mg/L (≈ 25.1 µM); IC90 STA RMETH [8]: 13.4 mg/L (≈ 25.1 µM); IC90 STA 25923 [9]: 11.9 mg/L (≈ 22.3 µM)
COc1nc2ccc(Br)cc2cc1C(c1ccccc1)C(O)(CCc1cccc2ccccc12)CCN(C)C (stereo not drawn) [Compound 7]			206	52.0 (≈ 89.1 µM)	46.4 (≈ 79.5 µM)			
COc1nc2cccc(Br)c2cc1C(c1ccccc1)C(O)(CCc1ccccc1)CCN(C)C (stereo not drawn) [Compound 5]			156	23.8 (≈ 44.6 µM)	4.8 (≈ 9 µM)			IC90 [3]: 42.4 mg/L (≈ 79.5 µM); IC90 [5]: 53.4 mg/L (≈ 100 µM); IC90 [7]: 53.4 mg/L (≈ 100 µM)
COc1nc2ccc(C)cc2cc1C(c1ccccc1)C(O)(CCc1ccccc1)CCN(C)C (stereo not drawn) [Compound 1]	9.4 (≈ 20.1 µM)	1.9 (≈ 4.05 µM)	142			7.4 (≈ 15.8 µM)		IC90 [5]: 37.2 mg/L (≈ 79.4 µM); IC90 [7]: 18.7 mg/L (≈ 39.9 µM)
COc1nc2ccc(Br)cc2cc1C(c1ccccc1)C(O)(CCc1ccc(F)c(F)c1)CCN(C)C (racemic) [Compound 51]				1.8 (≈ 3.16 µM)	0.4 (≈ 0.702 µM)	5.7 (≈ 10 µM)	9.0 (≈ 15.8 µM)	IC90 EFA 29212 [5]: 10.1 mg/L (≈ 17.7 µM); IC90 STA RMETH [8]: 11.4 mg/L (≈ 20 µM)

Now from value to compound, other results behind:

IC90 [1] [mg/L]	IC90 [2] [mg/L]	melting point [°C]	IC90 STA 29213 [1] [mg/L]	IC90 SPN 6305 [2] [mg/L]	SMILES	IC90 SPY 8668 [3] [mg/L]	IC90 PAE 27853 [7] [mg/L]	also measured
1.7 (≈ 3.16 µM)	0.3 (≈ 0.558 µM)	140			CNCCC(O)(CCc1ccc(F)cc1)C(c1ccccc1)c1cc2cc(Br)ccc2nc1OC (stereo not drawn) [Compound 39]			
		180	48.5 (≈ 100 µM)	7.7 (≈ 15.9 µM)	CSc1nc2ccc(C)cc2cc1C(c1ccccc1)C(O)(CCc1ccccc1)CCN(C)C (stereo not drawn) [Compound 29]			
			1.7 (≈ 3.1 µM)	0.8 (≈ 1.46 µM)	COc1nc2ccc(Br)cc2cc1C(c1ccc(C)cc1)C(O)(CCc1ccccc1)CCN(C)C (stereo not drawn) [Compound 66]	1.7 (≈ 3.1 µM)	43.5 (≈ 79.4 µM)	IC90 EFA 29212 [5]: 9.7 mg/L (≈ 17.7 µM); IC90 STA RMETH [8]: 12.3 mg/L (≈ 22.5 µM)
	2.3 (≈ 3.62 µM)	94	10.1 (≈ 15.9 µM)		CCOCCOCCOc1nc2ccc(Br)cc2cc1C(c1ccccc1)C(O)(CCc1ccccc1)CCN(C)C (stereo not drawn) [Compound 43]		10.1 (≈ 15.9 µM)	IC90 [3]: 10.1 mg/L (≈ 15.9 µM); IC90 [5]: 10.1 mg/L (≈ 15.9 µM)
	2.3 (≈ 4.04 µM)	112	57.0 (≈ 100 µM)		COc1nc2ccc(Br)cc2cc1C(c1ccccc1)C(O)(CCN(C)C)Cc1cccc2ccccc12 (stereo not drawn) [Compound 41]			
13.8 (≈ 25.1 µM)		191		9.8 (≈ 17.8 µM)	CSc1nc2ccc(Br)cc2cc1C(c1ccccc1)C(O)(CCc1ccccc1)CCN(C)C (stereo not drawn) [Compound 10]			
10.2 (≈ 22.4 µM)	9.1 (≈ 20 µM)	122			COc1nc2ccccc2cc1C(c1ccccc1)C(O)(CCc1ccccc1)CCN(C)C (stereo not drawn) [Compound 12]			
